For the data set the following is noted: Liquid; Ebulliometric method (Recirculating still).

SMILES strings stand for the structures. Numbers after ± are expanded uncertainties.

Consider `CCCO` [propan-1-ol], for which the Normal boiling temperature was found to be 96.8 ± 0.7 °C.

As for `CCOCC(C)O` (centres undefined) [1-ethoxy-2-propanol], the Normal boiling temperature was 131.89 ± 0.7 °C. Regarding `CC(C)OC(C)C` [diisopropyl ether], the Normal boiling temperature is 68.57 ± 0.7 °C. To `CC(C)O` [propan-2-ol] belongs 82.18 ± 0.7 °C.
